Structures are written as SMILES. Read-outs that look alike come from different tables or passages of the source.

For one assay, the target named is T1, mTOR (Homo sapiens, UniProt P42345).
T1 construct: purchased Invitrogen Corporation (Carlsbad/Calif., USA) PV4753
Description: Biochemical assay for m-TOR by TR-FRET. The procedure, abridged:
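mTOR (0.5 nM) phosphorylates GFP-4EBP1 (400 nM) with 8 μM ATP at rt in 50 mM HEPES pH 7.5, 10 mM MnCl2, 50 mM NaCl, 1 mM EGTA, 1 mM DTT; compounds 0.003–10 μM final. EDTA stop with Tb-anti-p4EBP1[pT46] antibody (0.5 nM); TR-FRET read after 15 min against no-enzyme and vehicle controls.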
Background: In TR-FRET formats the signal depends on donor and acceptor labels being close together.

Assay [1] has as its system PKB Ser473 phosphorylation in Rat1-myr-HA-p110 beta cells. Description: Reverse protein array, PKB Ser473 phosphorylation in Rat1-myr-HA-p110 beta cells. Format: cell-based. To be noted: Rattus norvegicus, 0.5 h, 30 minutes compound incubation, read-out: p-PKB/IC50_beta.
The subject of assay [2] is PKB Ser473 phosphorylation in Rat1-myr-HA-p110 delta cells. Kind of assay: Reverse protein array, PKB Ser473 phosphorylation in Rat1-myr-HA-p110 delta cells. The format is cell-based. Particulars: Rattus norvegicus, 0.5 h, 30 minutes compound incubation, read-out: p-PKB/IC50_delta.

T1 sequence (P42345 1360-2549 limits assumed): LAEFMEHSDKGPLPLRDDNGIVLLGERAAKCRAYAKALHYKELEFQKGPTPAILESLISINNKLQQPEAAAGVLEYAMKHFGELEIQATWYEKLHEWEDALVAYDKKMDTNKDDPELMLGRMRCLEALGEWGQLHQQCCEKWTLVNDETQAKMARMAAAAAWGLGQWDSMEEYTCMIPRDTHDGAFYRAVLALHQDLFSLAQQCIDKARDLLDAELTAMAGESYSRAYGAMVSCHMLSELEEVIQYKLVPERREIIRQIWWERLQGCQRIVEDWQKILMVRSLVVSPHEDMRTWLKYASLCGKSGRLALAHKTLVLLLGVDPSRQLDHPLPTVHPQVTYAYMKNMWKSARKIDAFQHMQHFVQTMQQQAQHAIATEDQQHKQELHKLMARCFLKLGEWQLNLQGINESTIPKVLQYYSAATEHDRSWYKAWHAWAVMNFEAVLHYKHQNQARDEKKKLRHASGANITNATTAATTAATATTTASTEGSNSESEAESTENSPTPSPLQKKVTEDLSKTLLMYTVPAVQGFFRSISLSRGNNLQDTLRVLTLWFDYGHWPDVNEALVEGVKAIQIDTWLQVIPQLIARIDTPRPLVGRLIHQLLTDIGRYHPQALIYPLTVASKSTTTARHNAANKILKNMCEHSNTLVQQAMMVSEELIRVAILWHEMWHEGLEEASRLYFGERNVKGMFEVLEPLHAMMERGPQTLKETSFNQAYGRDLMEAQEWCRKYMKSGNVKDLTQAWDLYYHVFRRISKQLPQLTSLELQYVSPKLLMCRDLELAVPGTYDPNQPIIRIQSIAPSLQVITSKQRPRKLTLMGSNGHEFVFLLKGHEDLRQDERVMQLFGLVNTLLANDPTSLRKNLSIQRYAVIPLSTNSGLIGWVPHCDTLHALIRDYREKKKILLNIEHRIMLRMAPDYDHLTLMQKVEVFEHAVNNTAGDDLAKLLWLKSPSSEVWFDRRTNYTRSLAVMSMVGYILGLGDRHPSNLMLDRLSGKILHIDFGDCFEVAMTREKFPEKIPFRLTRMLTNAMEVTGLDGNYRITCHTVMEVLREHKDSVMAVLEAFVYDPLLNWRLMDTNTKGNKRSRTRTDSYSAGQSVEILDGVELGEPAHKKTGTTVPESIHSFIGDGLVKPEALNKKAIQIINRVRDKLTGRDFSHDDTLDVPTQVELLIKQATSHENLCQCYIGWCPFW

In the case of `CNC(=O)c1ccc(-c2ccc3ncc4c(c3c2)n(-c2cccnc2C)c(=O)n4C)cc1` [Example 2.4, N-Methyl-4-[3-methyl-1-(2-methyl-pyridin-3-yl)-2-oxo-2,3-dihydro-1H-imidazo[4,5-c]quinolin-8-yl]-benzamide], the IC50 on mTOR (read-out: mTOR/IC50) was 12 nM; in assay [1], 14.8 nM; in assay [2] it was 29.1 nM.

Take `Cc1ncccc1-n1c(=O)n(C)c2cnc3ccc(-c4cnc5[nH]ccc5c4)cc3c21` [Example 2.8, 3-Methyl-1-(2-methyl-pyridin-3-yl)-8-(1H-pyrrolo[2,3-b]pyridin-5-yl)-1,3-dihydro-imidazo[4,5-c]quinolin-2-one]: the IC50 worked out at 9.49 nM in assay [1] and 13.8 nM in assay [2].

For the compound `COCc1ncc(-c2ccc3ncc4c(c3c2)n(-c2cccnc2C)c(=O)n4C)cc1OC` [Example 2.30, 8-(5-Methoxy-6-methoxymethyl-pyridin-3-yl)-3-methyl-1-(2-methyl-pyridin-3-yl)-1,3-dihydro-imidazo[4,5-c]quinolin-2-one], the IC50 came out at 77 nM at mTOR (read-out: EPK_mTOR/IC50), 139 nM in assay [1] and 336 nM in assay [2].

Regarding `Cn1c(=O)n(-c2cccnc2F)c2c3cc(-c4cnc5[nH]ccc5c4)ccc3ncc21` [Example 6.3, 1-(2-Fluoro-pyridin-3-yl)-3-methyl-8-(1H-pyrrolo[2,3-b]pyridin-5-yl)-1,3-dihydro-imidazo[4,5-c]quinolin-2-one], the IC50 stood at 47 nM at mTOR (read-out: mTOR/IC50), 14.1 nM in assay [1] and 43.2 nM in assay [2].

As to `Cc1nc(F)ccc1-n1c(=O)n(C)c2cnc3ccc(-c4cncc(N5CCC5)c4)cc3c21` [Example 7.6, 8-(5-Azetidin-1-yl-pyridin-3-yl)-1-(6-fluoro-2-methyl-pyridin-3-yl)-3-methyl-1,3-dihydro-imidazo[4,5-c]quinolin-2-one], the IC50 at mTOR (read-out: EPK_mTOR/IC50) was 59 nM; in assay [1] it was 22.8 nM; in assay [2], 119 nM.

With `COCc1ncc(-c2ccc3ncc4c(c3c2)n(-c2ccc(F)nc2C)c(=O)n4C)cc1OC` [Example 7.7, 1-(6-Fluoro-2-methyl-pyridin-3-yl)-8-(5-methoxy-6-methoxymethyl-pyridin-3-yl)-3-methyl-1,3-dihydro-imidazo[4,5-c]quinolin-2-one], the IC50 on mTOR (read-out: EPK_mTOR/IC50) turned out to be 447 nM; in assay [1], 278 nM; in assay [2], 598 nM.

In the case of `COc1cc(-c2ccc3ncc4c(c3c2)n(-c2ccc(F)nc2C)c(=O)n4C)cnc1CO` [Example 7.10, 1-(6-Fluoro-2-methyl-pyridin-3-yl)-8-(6-hydroxymethyl-5-methoxy-pyridin-3-yl)-3-methyl-1,3-dihydro-imidazo[4,5-c]quinolin-2-one], the IC50 on mTOR (read-out: EPK_mTOR/IC50) came to 301 nM; in assay [1], 96.6 nM; in assay [2], 315 nM.

Take `COc1ccc(-n2c(=O)n(C)c3cnc4ccc(-c5cncc(N6CCC6)c5)cc4c32)c(OC)n1` [Example 8.11, 8-(5-Azetidin-1-yl-pyridin-3-yl)-1-(2,6-dimethoxy-pyridin-3-yl)-3-methyl-1,3-dihydro-imidazo[4,5-c]quinolin-2-one]: the IC50 at mTOR (read-out: EPK_mTOR/IC50) amounted to 5 nM; in assay [1] it was 17.1 nM; in assay [2], 93.1 nM.

On to `COc1ccc(-n2c(=O)n(C)c3cnc4ccc(-c5cnc(C(OC)OC)c(OC)c5)cc4c32)c(OC)n1` [Example 8.13, 8-(6-Dimethoxymethyl-5-methoxy-pyridin-3-yl)-1-(2,6-dimethoxy-pyridin-3-yl)-3-methyl-1,3-dihydro-imidazo[4,5-c]quinolin-2-one], for which the IC50 on mTOR (read-out: EPK_mTOR/IC50) was 86 nM; in assay [1], 212 nM; in assay [2], 599 nM.

For the compound `COc1ccc(-n2c(=O)n(C)c3cnc4ccc(-c5cnc(CO)c(OC)c5)cc4c32)c(OC)n1` [Example 8.14, 1-(2,6-Dimethoxy-pyridin-3-yl)-8-(6-hydroxymethyl-5-methoxy-pyridin-3-yl)-3-methyl-1,3-dihydro-imidazo[4,5-c]quinolin-2-one], the IC50 at mTOR (read-out: EPK_mTOR/IC50) stood at 115 nM; in assay [1] it was 56.7 nM; in assay [2], 186 nM.

With `COc1cc(-c2ccc3ncc4c(c3c2)n(-c2ccc(N3CC(F)(F)C3)nc2C)c(=O)n4C)cnc1CO` [Example 24.4, 1-[6-(3,3-Difluoro-azetidin-1-yl)-2-methyl-pyridin-3-yl]-8-(6-hydroxymethyl-5-methoxy-pyridin-3-yl)-3-methyl-1,3-dihydro-imidazo[4,5-c]quinolin-2-one], the IC50 on mTOR (read-out: EPK_mTOR/IC50) is 449 nM; in assay [1] it was 44.1 nM; in assay [2], 88.5 nM.

On to `COc1cc(-c2ccc3ncc4c(c3c2)n(-c2ccc(N3CCCC3)nc2C)c(=O)n4C)cnc1CO` [Example 25.4, 8-(6-Hydroxymethyl-5-methoxy-pyridin-3-yl)-3-methyl-1-(2-methyl-6-pyrrolidin-1-yl-pyridin-3-yl)-1,3-dihydro-imidazo[4,5-c]quinolin-2-one], for which the IC50 at mTOR (read-out: EPK_mTOR/IC50) is 655 nM; in assay [1] it was 17.6 nM; in assay [2], 58.1 nM.

Take `CCNc1cc(-c2ccc3ncc4c(c3c2)n(-c2ccc(N3CCCC3)nc2C)c(=O)n4C)cnc1CO` [Example 25.5, 8-(5-Ethylamino-6-hydroxymethyl-pyridin-3-yl)-3-methyl-1-(2-methyl-6-pyrrolidin-1-yl-pyridin-3-yl)-1,3-dihydro-imidazo[4,5-c]quinolin-2-one]: the IC50 on mTOR (read-out: EPK_mTOR/IC50) is 22 nM; in assay [1] it was below 4.57 nM; in assay [2] it was 7.6 nM.

`CCNc1cc(-c2ccc3ncc4c(c3c2)n(-c2ccc(N(C)CCO)nc2C)c(=O)n4C)cnc1CO` [Example 26.3, 8-(5-Ethylamino-6-hydroxymethyl-pyridin-3-yl)-1-{6-[(2-hydroxy-ethyl)-methyl-amino]-2-methyl-pyridin-3-yl}-3-methyl-1,3-dihydro-imidazo[4,5-c]quinolin-2-one]: the IC50 came to 9 nM at mTOR (read-out: EPK_mTOR/IC50), 6.9 nM in assay [1] and 12.8 nM in assay [2].

`Cc1nc(N2CCC(O)C2)ccc1-n1c(=O)n(C)c2cnc3ccc(-c4cnc(N)c(C(F)(F)F)c4)cc3c21` (centres unmarked) [Example 27.3, 8-(6-Amino-5-trifluoromethyl-pyridin-3-yl)-1-[6-(3-hydroxy-pyrrolidin-1-yl)-2-methyl-pyridin-3-yl]-3-methyl-1,3-dihydro-imidazo[4,5-c]quinolin-2-one]: the IC50 at mTOR (read-out: EPK_mTOR/IC50) came out at 7 nM; in assay [1] it was 8.6 nM; in assay [2] it was 8.9 nM.

For the compound `CCOc1ccc(-c2ccc3ncc4c(c3c2)n(-c2ccc(N3CCC(O)C3)nc2C)c(=O)n4C)cn1` (centres unmarked) [Example 27.4, 8-(6-Ethoxy-pyridin-3-yl)-1-[6-(3-hydroxy-pyrrolidin-1-yl)-2-methyl-pyridin-3-yl]-3-methyl-1,3-dihydro-imidazo[4,5-c]quinolin-2-one], the IC50 came out at 23 nM at mTOR (read-out: EPK_mTOR/IC50), 20.4 nM in assay [1] and 38.1 nM in assay [2].

As to `Cc1nc(N2CCC(O)C2)ccc1-n1c(=O)n(C)c2cnc3ccc(-c4cncc(C(C)(C)O)c4)cc3c21` (centres unmarked) [Example 27.5, 8-[5-(1-Hydroxy-1-methyl-ethyl)-pyridin-3-yl]-1-[6-(3-hydroxy-pyrrolidin-1-yl)-2-methyl-pyridin-3-yl]-3-methyl-1,3-dihydro-imidazo[4,5-c]quinolin-2-one], the figures for the IC50 (on mTOR (read-out: EPK_mTOR/IC50); in assay [1]; in assay [2]) were 15 nM, 197 nM and 309 nM, respectively.

With `CNc1ncc(-c2ccc3ncc4c(c3c2)n(-c2ccc(N3CCC(OC)C3)nc2C)c(=O)n4C)cn1` (centres unmarked) [Example 28.2, 1-[6-(3-Methoxy-pyrrolidin-1-yl)-2-methyl-pyridin-3-yl]-3-methyl-8-(2-methylamino-pyrimidin-5-yl)-1,3-dihydro-imidazo[4,5-c]quinolin-2-one], the IC50 on mTOR (read-out: EPK_mTOR/IC50) came to 8 nM; in assay [1] it was 7.4 nM; in assay [2] it was 22.9 nM.

With `COc1cc(-c2ccc3ncc4c(c3c2)n(-c2ccc(N3CCC(OC)C3)nc2C)c(=O)n4C)cnc1CO` (centres unmarked) [Example 28.3, 8-(6-Hydroxymethyl-5-methoxy-pyridin-3-yl)-1-[6-(3-methoxy-pyrrolidin-1-yl)-2-methyl-pyridin-3-yl]-3-methyl-1,3-dihydro-imidazo[4,5-c]quinolin-2-one], the IC50 came to 172 nM on mTOR (read-out: EPK_mTOR/IC50), 44.5 nM in assay [1] and 121 nM in assay [2].

Consider `Cc1nc(N2CC(O)C2)ccc1-n1c(=O)n(C)c2cnc3ccc(-c4cncc(C(C)(C)O)c4)cc3c21` [Example 29.1, 1-[6-(3-Hydroxy-azetidin-1-yl)-2-methyl-pyridin-3-yl]-8-[5-(1-hydroxy-1-methyl-ethyl)-pyridin-3-yl]-3-methyl-1,3-dihydro-imidazo[4,5-c]quinolin-2-one], for which the IC50 was 5 nM at mTOR (read-out: EPK_mTOR/IC50), 1100 nM in assay [1] and 350 nM in assay [2].

`COc1cc(-c2ccc3ncc4c(c3c2)n(-c2ccc(N)nc2C)c(=O)n4C)cnc1CO` [Example 30.1, 1-(6-Amino-2-methyl-pyridin-3-yl)-8-(6-hydroxymethyl-5-methoxy-pyridin-3-yl)-3-methyl-1,3-dihydro-imidazo[4,5-c]quinolin-2-one]: the IC50 at mTOR (read-out: EPK_mTOR/IC50) is 118 nM; in assay [1], 237 nM; in assay [2] it was 715 nM.

Regarding `CNc1ncc(-c2ccc3ncc4c(c3c2)n(-c2ccc(N3CC[C@H](O)C3)nc2C)c(=O)n4C)cc1Cl` [Example 32.4, 8-(5-Chloro-6-methylamino-pyridin-3-yl)-1-[6-((S)-3-hydroxy-pyrrolidin-1-yl)-2-methyl-pyridin-3-yl]-3-methyl-1,3-dihydro-imidazo[4,5-c]quinolin-2-one], the figures for the IC50 (at mTOR (read-out: EPK_mTOR/IC50); in assay [1]; in assay [2]) were 7 nM, 13 nM and 16 nM, respectively.

The values are drawn from patent publication US20100311714A1, “1H-IMIDAZO[4,5-c]QUINOLINONE COMPOUNDS” (priority 2009, published 2010).
